Reference: US10087226B2, “Chimeric peptide that interacts with cell membrane gangliosides” (Universite D'Aix-Marseille, priority 2014, dated 2018)
Blank lines part the entries; values can stand above or below the sequence they belong to. Ends that are not written are not given here.

What was measured:
[1] = Lipid monolayer assay (Langmuir film balance), GM1 monolayer; assay type: binding; details: for interaction with GM1 monolayer (surface pressure increase): peptide 10 μM in subphase
Method: Peptide-cholesterol interactions were studied with the Langmuir film balance technique using a Kibron microtensiometer as previously described (Fantini and Yahi, 2011a).
In this experiment, a monolayer of ganglioside GM1 was prepared at the air-water interface and the peptide was injected in the aqueous subphase. The interaction of the peptide with the ganglioside was evidenced by an increase in the surface pressure of the monolayer, which was followed in real-time with a platinum probe (see Thakur et al, 2009 for a full description of the technique and its application to amyloid proteins). […] Then single mutants were assayed to identify which of the two His is actually critical for GM1 recognition. […] In this model, His-13 interacted with one GM1, and His-14 with the second one. Clearly, the cooperation between both GM1 molecules allowed an optimal interaction with the Aβ5-16 peptide driven by histidine residues. Conversely, because it is devoid of these histidine residues, the glycolipid-binding domain of α-synuclein (α-syn34-45) has a marked preference for ganglioside GM3 instead of GM1.

[2] = Lipid monolayer assay, GM3 monolayer; assay type: binding
[3] = test system: bEnd-3 cells co-cultured with glial C6 cells
Method: (§1) These cells are plated at various densities ranging from 10.000 to 50.000 cells per well in two-compartment cell chambers (Greiner Bio-one). The lower compartment of the chamber is a well that is part of 12-well culture plate. The upper chamber is equipped with a permeable filter (mean pore diameter of 0.4 μm) onto which the cells are seeded. The cells are cultured in DMEM/F12 10% fetal calf serum.
(§2) At confluency, the cells formed a uniform monolayer with a transendothelial resistance of 150-200 Ω·cm^2 (measured with the EVOM apparatus, WPI). The transendothelial resistance reflects the presence of tight junctions overall the culture. These tight junctions efficiently prevent the paracellular passage of molecules. It is considered that the endothelium is tight when this value is >100 Ω·cm^2. Therefore, all experiments are performed with functional endothelial barriers. […]
(§3) The passage of the peptide through the endothelial barrier is thus followed in real-time. The concentration of the chimeric peptide is determined by spectrophotometry. […]

[4] = test system: bEnd-3 cells co-cultured with astrocytic CTX-TNA2 cells
Method: as §1, §2, §3

SH-SY5Y cells = test: Calcium measurements, amyloid pore formation induced by Aβ1-42; assay type: cell-based, human
Method: A. In a first experiment, SH-SY5Y cells were treated with Aβ1-42peptide (220 nM), and Ca^2+ dependent fluorescence was analyzed (top curve). In a second series of experiments, Aβ1-42 and the chimeric α-syn34-45/HH peptide (both 220 nM) were mixed extemporaneously directly injected onto the cells (C1 and C2 curves corresponding to two separate experiments). The C3 curve corresponds to the calcium response induced by the chimeric peptide alone. Results are expressed as mean±SD (n=100). In panel B, the same colors were used but the chimeric peptide was replaced by the wild-type α-syn34-45 peptide.
A. SH-SY5Y cells were treated with Aβ1-42 peptide (220 nM), and Ca^2+ dependent fluorescence was analyze. […] In absence of the chimeric peptide (− Pep Chim), amyloid pore formation induced by the Aβ1-42 peptide was evidenced by an increase of Ca^2+ fluorescence inside the cells. […] Warmer colors correspond to higher fluorescence (left scale).
Cells were plated in 35 mm culture dishes, grown during 72 h and loaded with 5 μM Fluo-4 AM (Invitrogen-Life Technologies, Saint Aubin, France) for 30 min in the dark, washed three times with HBSS (Gibco-Life Technologies, Saint-Aubin, France), and incubated for 20 min at 37° C. […] Fluorescence emission at 525 nm was imaged by a digital camera CDD (ORCA-ER Hamanatsu, Japan) after fluorescence excitation at 490 nm. […]

[5] = Lipid monolayer assay, GD3 monolayer; assay type: binding; details: peptide 10 μM in aqueous subphase
[6] = Lipid monolayer assay, GM4 monolayer; assay type: binding; details: peptide 10 μM in aqueous subphase
[7] = Lipid monolayer assay, GT1b monolayer; assay type: binding; details: peptide 10 μM in aqueous subphase
[8] = Lipid monolayer assay, GD1a monolayer; assay type: binding; details: peptide 10 μM in aqueous subphase
[9] = initial surface pressure 17.5 mN·m^−1
[10] = ganglioside monolayer, peptide 10 μM in aqueous subphase

Sequence: RHDSGYEVHHQK (listed as Homo sapiens) [Aβ5-16]
interaction with GM1 monolayer (surface pressure increase) [1, 9]: surface pressure started to increase immediately after the injection | time to maximum surface pressure, GM1 monolayer ([1]; peptide 10 μM, initial surface pressure 17.5 mN·m^−1): 30 min

Sequence: KEHHGVLYVGTK [reversed chimeric peptide]
interaction with GM3 monolayer (surface pressure increase, kinetics) ([2]; peptide in subphase, initial surface pressure 17.5 mN·m^−1): recognizes both GM1 and GM3 gangliosides | interaction with GM1 monolayer (surface pressure increase) [1, 9]: recognizes both GM1 and GM3 gangliosides

transendothelial resistance after 24 hours of incubation with peptide [3]: 152 Ω·cm^2 | transendothelial resistance after 24 hours of incubation with peptide [4]: 153 Ω·cm^2
Sequence: KEGVLYVGHHTK [α-syn34-45/HH, KEGVLYVGHHTK]
effect of peptide alone on Ca^2+ fluxes (intrinsic neurotoxicity) (SH-SY5Y cells; peptide alone, SH-SY5Y cells): little effect on Ca^2+ fluxes

Sequence: KEGVLYVGSKTK (listed as Homo sapiens) [α-syn34-45]
Ganglioside specificity: critical pressure of insertion, GD3 [5]: + ((+) means a critical pressure of insertion <25 mN · m^−1) | Ganglioside specificity: critical pressure of insertion, GM4 [6]: + ((+) means a critical pressure of insertion <25 mN · m^−1) | Ganglioside specificity: critical pressure of insertion, GM3 [2, 10]: +++ ((+++) a critical pressure of insertion >25 mN · m^−1) | critical pressure of insertion (πc), GM3 monolayers ([2]; monolayers at various initial surface pressures, x-axis intercept (FIG. 2B)): 37.5 mN·m^−1 | Ganglioside specificity: critical pressure of insertion, GT1b [7]: + ((+) means a critical pressure of insertion <25 mN · m^−1) | Ganglioside specificity: critical pressure of insertion, GD1a [8]: + ((+) means a critical pressure of insertion <25 mN · m^−1) | Ganglioside specificity: critical pressure of insertion, GM1 [1, 10]: + ((+) means a critical pressure of insertion <25 mN · m^−1) | critical pressure of insertion (πc), GM1 monolayers ([1]; monolayers at various initial surface pressures, x-axis intercept (FIG. 2D, 4C)): 25 mN·m^−1 | effect on elevation of intracellular Ca^2+ levels induced by Aβ1-42 (SH-SY5Y cells; Aβ1-42 220 nM, peptide 220 nM (equimolar), Fluo-4 AM fluorescence): only very little inhibitory activity
